Results from US7915293B2, “Ubiquitin ligase inhibitors” (Rigel Pharmaceuticals, Inc., priority 2003, dated 2011).

Target: E3 (His-APC11/APC2-"APC") (Homo sapiens, UniProt Q9NYG5+Q9UJX6)
Assay: Plate-based E3 ligase assay (APC FLAG), auto-ubiquitination
Format: biochemical
Design: key: “+” indicates that the compound exibits inhibitory activity; “−” indicates that low or no inhibitory activity was observed
Settings: for APC Flag 8 pt: 8 concentrations tested; for APC Flag (2 pt): 2 concentrations tested
Protocol: E3 (His-APC11/APC2-“APC”) auto-ubiquitination was measured as described in U.S. patent application Ser. No. 09/826,312 (Publication No. US-2002-0042083-A1), which is incorporated herein in its entirety. Details of the protocol are described below. Activity in the presence of the compound was determined relative to a parallel control in which only DMSO was added. Values of the IC50 were typically determined using 6 or 8 different concentrations of the compound, although as few as 2 concentrations may be used to approximate the IC50 value.
Nickel-coated 96-well plates (Pierce 15242) were blocked for 1 hour with 100 μl of blocking buffer at room temperature. The plates were washed 4 times with 225 μl of 1×PBS and 80 μl of the reaction buffer were added that contained 100 ng/well of Flag-ubiquitin. To this, 10 μl of the test compound diluted in DMSO were added. After the test compound was added, 10 μl of E1 (human), E2 (Ubch5c), and APC in Protein Buffer was added to obtain a final concentration of 5 ng/well of E1, 20 ng/well of E2 and 100 ng/well of APC. The plate were shaken for 10 minutes and incubated at room temperature for 1 hour. After incubation, the plates were washed 4 times with 225 μl of 1×PBS and 100 μl/well of Antibody Mix were added to each well. The plates were incubate at room temperature for another hour after which they were washed 4 times with 225 μl of 1×PBS and 100 μl/well of Lumino substrate were added to each well. The luminescence was measured by using a BMG luminescence microplate reader.
To prepare the Blocking Buffer (1 liter; 1% Casein in 1×PBS), 10 grams of Casein (Hammersten Grade Casein from Gallard-Schlesinger Inc. #440203) were placed into 1 liter of 1×PBS, stirred on a hot plate and kept between 50-60° C. for an hour. The buffer was allowed to cool to room temperature and then filtered using a Buchner Funnel (Buchner filter funnel 83 mm 30310-109) and Whatman filter paper (Whatman Grade No. 1 Filter paper 28450-070). It was stored at 4° C. until used.
The reaction buffer consisted of 62.5 mM Tris pH 7.6 (Trizma Base—Sigma T-8524), 3 mM MgCl2 (Magnesium Chloride—Sigma M-2393), 1 mM DTT (Sigma D-9779), 2.5 mM ATP (Roche Boehringer Mann Corp. 635-316), 100 ng/well of Flag-ubiquitin, 0.1% BSA (Sigma A-7906), and 0.05% Tween-20 (Sigma P-7949).
The Protein Buffer consisted of 20 mM Tris pH 7.6, 10% glycerol (Sigma G-5516) and 1 mM DTT.
The antibody mix consisted of 0.25% BSA (Sigma A-7906) in 1×PBS, 1/50,000 anti-Flag (Sigma F-3165), 1/100,000 of anti-Mouse IgG-HRP (Jackson Immunoresearch #115-035-146).
The substrate mix consisted of SuperSignal Substrate from Pierce (catalog number 37070ZZ) and was prepared by mixing 100 ml of the peroxide solution, 100 ml of the enhancer solution and 100 ml of Milli-Q® water.

E3 (His-APC11/APC2-"APC"), sequence (Q9NYG5 whole entry): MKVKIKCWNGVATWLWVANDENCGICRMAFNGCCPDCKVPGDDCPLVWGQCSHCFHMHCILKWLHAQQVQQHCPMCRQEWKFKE
E3 (His-APC11/APC2-"APC"), sequence (Q9UJX6 whole entry): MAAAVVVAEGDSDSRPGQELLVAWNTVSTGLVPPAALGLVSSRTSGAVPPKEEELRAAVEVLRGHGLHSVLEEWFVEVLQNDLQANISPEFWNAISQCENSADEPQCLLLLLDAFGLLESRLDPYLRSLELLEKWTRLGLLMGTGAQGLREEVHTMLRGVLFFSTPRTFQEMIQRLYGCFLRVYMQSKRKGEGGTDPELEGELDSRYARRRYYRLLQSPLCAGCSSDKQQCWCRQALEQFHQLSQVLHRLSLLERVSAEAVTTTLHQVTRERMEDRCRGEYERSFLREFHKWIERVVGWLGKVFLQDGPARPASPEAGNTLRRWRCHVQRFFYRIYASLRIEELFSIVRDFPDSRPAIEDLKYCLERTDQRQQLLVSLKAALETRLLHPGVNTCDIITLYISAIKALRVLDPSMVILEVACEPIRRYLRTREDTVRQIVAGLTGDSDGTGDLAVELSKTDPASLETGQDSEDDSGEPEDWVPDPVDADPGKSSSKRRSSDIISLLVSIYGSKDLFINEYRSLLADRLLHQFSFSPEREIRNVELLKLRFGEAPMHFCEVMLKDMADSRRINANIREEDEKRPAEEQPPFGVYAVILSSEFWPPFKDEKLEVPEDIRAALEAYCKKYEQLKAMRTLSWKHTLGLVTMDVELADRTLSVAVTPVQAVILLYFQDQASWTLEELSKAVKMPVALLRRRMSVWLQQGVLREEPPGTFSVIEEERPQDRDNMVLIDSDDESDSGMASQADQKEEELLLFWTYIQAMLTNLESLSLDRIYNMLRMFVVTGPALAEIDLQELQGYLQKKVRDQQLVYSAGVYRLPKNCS

Row | SMILES | APC Flag 8 pt | APC Flag (2 pt)
1 | Cc1cc(C)c(NS(=O)(=O)c2cc(Cl)c(Oc3ccc([N+](=O)[O-])cc3Cl)c(Cl)c2)c(C)c1 [Example 144, 3,5-dichloro-4-(2-chloro-4-nitrophenoxy)-N-mesitylbenzenesulfonamide] | + | 
2 | O=C(Nc1cc(Cl)ccc1Cl)N1CCC(Oc2ccccc2C(F)(F)F)CC1 [Example 308, N-(2,5-dichlorophenyl)-4-(2-(trifluoromethyl)phenoxy)piperidine-1-carboxamide] | − | 
3 | O=[N+]([O-])c1ccc(N(S(=O)(=O)c2cc(Cl)c(Oc3ccc([N+](=O)[O-])cc3Cl)c(Cl)c2)S(=O)(=O)c2cc(Cl)c(Oc3ccc([N+](=O)[O-])cc3Cl)c(Cl)c2)cc1 [Example 138, 3,5-dichloro-4-(2-chloro-4-nitrophenoxy)-N-(1,3-dichloro-2-(2-chloro-4-nitrophenoxy)-5-sulfonylbenzene)-N-(4-nitrophenyl) benzenesulfonamide] | + | 
4 | O=[N+]([O-])c1cc(C(F)(F)F)cc([N+](=O)[O-])c1Oc1ccc(NS(=O)(=O)c2ccc(Cl)cc2)cc1Cl [Example 248, 4-chloro-N-{3-chloro-4-[2,6-dinitro-4-(tri-fluoromethyl)phenoxy]phenyl}benzene-sulfonamide] | − | 
5 | O=S(=O)(Nc1ccc(F)c(Cl)c1)c1ccc(Oc2ccc(F)cc2)cc1 [Example 189, N-(3-chloro-4-fluorophenyl)-4-(4-fluoro-phenoxy)benzenesulfonamide] |  | − (2 pt)
6 | O=[N+]([O-])c1ccc(Oc2c(Cl)cc(S(=O)(=O)NCCCOc3cc(Cl)cc(Cl)c3)cc2Cl)c(Cl)c1 [Example 126, 3,5-dichloro-4-(2-chloro-4-nitrophenoxy)-N-[3-(3,5-dichlorophenoxy)propyl] benzenesulfonamide] | − | 
7 | O=[N+]([O-])c1ccc(Oc2c(Cl)cc(S(=O)(=O)NCC3CC3)cc2Cl)c(Cl)c1 [Compound 120, N-(Cyclopropylmethyl)-3,5-Dichloro-4-(2-Chloro-4-Nitrophenoxy) Benzenesulfonamide] | + | 
8 | O=[N+]([O-])c1cccc(Cl)c1Oc1ccc(S(=O)(=O)Nc2cccc(Br)c2)cc1 [Example 183, N-(3-bromophenyl)-4-(2-chloro-6-nitro-phenoxy)benzenesulfonamide] | − | 
9 | O=C(NCC1CC1)[C@@H]1CCCN1S(=O)(=O)c1cc(Cl)c(Oc2ccc([N+](=O)[O-])cc2Cl)c(Cl)c1 [Compound 139, N-(cyclopropylmethyl)-1-{[3,5-dichloro-4-(2-chloro-4-nitrophenoxy)phenyl]sulfonyl}prolinamide] | − | 
10 | O=[N+]([O-])c1ccc(Oc2c(Cl)cc(S(=O)(=O)NC(=S)Nc3cccnc3)cc2Cl)c(Cl)c1 [Example 158, 3,5-dichloro-4-(2-chloro-4-nitrophenoxy)-N-[(pyridin-3-ylamino)carbonothioyl] benzenesulfonamide] | − | 
11 | O=[N+]([O-])c1ccc(Oc2c(Cl)cc(S(=O)(=O)Nc3ccc(F)c(F)c3)cc2Cl)c(Cl)c1 [Example 197, 3,5-dichloro-4-(2-chloro-4-nitrophenoxy)-N-(3,4-difluorophenyl)benzenesulfonamide] | + | 
12 | CC1CC(C)CN(S(=O)(=O)c2cc(Cl)c(Oc3ccc([N+](=O)[O-])cc3Cl)c(Cl)c2)C1 (centres unmarked) [Example 20, 1-{[3,5-dichloro-4-(2-chloro-4-nitrophenoxy)phenyl]sulfonyl}-3,5-dimethylpiperidine] | + | 
13 | O=[N+]([O-])c1ccc(Oc2c(Cl)cc(S(=O)(=O)Nc3cccc(F)c3F)cc2Cl)c(Cl)c1 [Example 239, 3,5-dichloro-4-(2-chloro-4-nitrophenoxy)-N-(2,3-difluorophenyl)benzenesulfonamide] | + | 
14 | Cc1ccc(S(=O)(=O)Nc2ccc(Oc3c([N+](=O)[O-])cc(C(F)(F)F)cc3[N+](=O)[O-])c(Cl)c2)cc1 [Example 247, N-{3-chloro-4-[2,6-dinitro-4-(trifluoro-methyl)phenoxy]phenyl}-4-methylbenzene-sulfonamide] | + | 
15 | O=[N+]([O-])c1ccc(Oc2c(Cl)cc(S(=O)(=O)NCCc3ccc(Cl)cc3Cl)cc2Cl)c(Cl)c1 [Example 127, 3,5-dichloro-4-(2-chloro-4-nitrophenoxy)-N-[2-(2,4-dichlorophenyl)ethyl]benzene-sulfonamide] | + | 
16 | Cc1c(Cl)cccc1NS(=O)(=O)c1ccc(Oc2ccc(F)cc2)cc1 [Example 188, N-(3-chloro-2-methylphenyl)-4-(4-fluoro-phenoxy)benzenesulfonamide] |  | − (2 pt)
17 | O=[N+]([O-])c1ccc(Oc2c(Cl)cc(S(=O)(=O)Nc3ccc(Cl)cc3)cc2Cl)c(Cl)c1 [Example 176, 3,5-dichloro-4-(2-chloro-4-nitrophenoxy)-N-(4-chlorophenyl)benzenesulfonamide] | − | 
18 | O=[N+]([O-])c1ccc(Oc2c(Cl)cc(S(=O)(=O)N3CCCC3)cc2Cl)c(Cl)c1 [Example 22, 1-{[3,5-dichloro-4-(2-chloro-4-nitrophenoxy)phenyl]sulfonyl}pyrrolidine] | − | 
19 | CC(C)Oc1ccc(NS(=O)(=O)c2cc(Cl)c(Oc3ccc([N+](=O)[O-])cc3Cl)c(Cl)c2)cc1 [Compound 134, 3,5-dichloro-4-(2-chloro-4-nitrophenoxy)-N-[4-isopropoxyphenyl]benzenesulfonamide] | + | 
20 | O=[N+]([O-])c1ccc(Oc2c(Cl)cc(S(=O)(=O)NCC3CCCO3)cc2Cl)c(Cl)c1 (centres unmarked) [Example 121, 3,5-dichloro-4-(2-chloro-4-nitrophenoxy)-N-(tetrahydrofuran-2-ylmethyl)benzene-sulfonamide] | − | 
21 | CC(=O)N(C(C)=O)c1ccc(Oc2c(Cl)cc(S(=O)(=O)Nc3cccc(Cl)c3)cc2Cl)c(Cl)c1 [Example 280, N-acetyl-N-[3-chloro-4-(2,6-dichloro-4-{[(3-chlorophenyl)amino]sulfonyl}phenoxy)phenyl]acetamide] | + | 
22 | Cc1cccc(NS(=O)(=O)c2cc(Cl)c(Oc3ccc([N+](=O)[O-])cc3Cl)c(Cl)c2)c1 [Example 161, 3,5-dichloro-4-(2-chloro-4-nitrophenoxy)-N-(3-methylphenyl)benzenesulfonamide] | + | 
23 | COc1cccc(NS(=O)(=O)c2cc(Cl)c(Oc3ccc([N+](=O)[O-])cc3Cl)c(Cl)c2)c1 [Example 163, 3,5-dichloro-4-(2-chloro-4-nitrophenoxy)-N-(3-methoxyphenyl)benzenesulfonamide] | + | 
24 | O=C1CCC(CCCNS(=O)(=O)c2cc(Cl)c(Oc3ccc([N+](=O)[O-])cc3Cl)c(Cl)c2)N1 (centres unmarked) [Example 122, 3,5-dichloro-4-(2-chloro-4-nitrophenoxy)-N-[3-(5-oxopyrrolidin-2-yl)propyl] benzenesulfonamide] | + | 
25 | N=C(N)NCCC[C@H](NS(=O)(=O)c1cc(Cl)c(Oc2ccc([N+](=O)[O-])cc2Cl)c(Cl)c1)C(N)=O [Example 141, N^2-{[3,5-dichloro-4-(2-chloro-4-nitrophenoxy)phenyl]sulfonyl}argininamide] | − | 
26 | CN(c1cccc(Cl)c1)S(=O)(=O)c1cc(Cl)c(Oc2ccc([N+](=O)[O-])cc2Cl)c(Cl)c1 [Compound 153, 3,5-dichloro-4-(2-chloro-4-nitrophenoxy)-N-(3-chlorophenyl)-N-methylbenzenesulfonamide] | − | 
